Measurements: patent US20220242874A1, “CAMPTOTHECIN DERIVATIVES” (SUN PHARMA ADVANCED RESEARCH COMPANY LIMITED, priority 2019, published 2022)
Structures can show the parent of a compound that is named as a salt. Where two headings read alike, the source gives them in different places.

Legend:
[1] = Buffer stability (phosphate buffer, 37° C., HPLC); assay type: physicochemical
Procedure: The representative compounds were first dissolved in a minimum quantity of DMSO in a volumetric flask and diluted up to the mark with diluent (water: acetonitrile 30:70). […] After the elapsed time, the buffer samples were diluted 4 times with acetonitrile and injected into an HPLC system. Quantification of representative compounds was done by HPLC.
HPLC method: Chromatographic separation was achieved on a Hypersil BDS C18 (100×4.6 mm, 5 μ) column using 25 mM KH2PO4 buffer (pH 7 with TEA): acetonitrile, 90:10 v/v as mobile phase-A and 25 mM KH2PO4 buffer (pH 7 with TEA): acetonitrile 30:70 v/v as mobile phase-B. The gradient started with initially 5% B to 45% B in 10 mins followed by 80% B in 22 mins and held up to 25 mins and then returned to initial conditions at 26 mins and continued up to 30 mins. The injection volume was kept 10 μL and the flow rate was kept at 1.0 mL/min. The UV-Vis Detector was set at 220 nm, the column oven was set at 37° C. and the sample cooler was set at […]. Total chromatographic runtime was 30 min.

[2] = test system: NCI H187 cells; experiment: In-vitro cancer cell growth inhibition assay (MTT); assay type: cell-based; conditions: Homo sapiens
Procedure: The compounds of the present invention were evaluated for their ability to inhibit the growth of various cell line models of small cell lung cancer (SCLC), colon cancer, pancreatic cancer and triple negative breast cancer (TNBC) in-vitro. Details of the cell lines and their respective complete growth media are described in Table 3. The growth inhibition assay was carried out as described below. Briefly, cells in complete growth media were seeded in 96-well plates at appropriate cell densities (seeding density details described in Table 3) and incubated at 37° C., 5% CO2 (3-4 hours for NCI-H526, NCI-H69, NCI-H187 and overnight for the rest of the cells). Serial dilutions of test compound in DMSO were added to the cells while maintaining the final DMSO concentration of 0.4%-0.5% in the well. […] Subsequently, MTT (final concentration 0.5 mg/mL in media) was incubated with the cells at 37° C., 5% CO2 for 4-5 hours. The formazan crystals were dissolved overnight at 37° C., 5% CO2 using 100 μL extractant (10% SDS in 0.01N HCl) and quantified using absorbance at 570 nm with reference wavelength 630 nm. Growth inhibition was represented as percent decrease in absorbance compared to vehicle treated cells.

[3] = test system: NCI H526 cells; experiment: In-vitro cancer cell growth inhibition assay (MTT); assay type: cell-based; conditions: Homo sapiens, NCI-H526, 96-144 h, read-out: IC50 (nM) NCI H526
Procedure: (§1) The compounds of the present invention were evaluated for their ability to inhibit the growth of various cell line models of small cell lung cancer (SCLC), colon cancer, pancreatic cancer and triple negative breast cancer (TNBC) in-vitro. Details of the cell lines and their respective complete growth media are described in Table 3. The growth inhibition assay was carried out as described below. Briefly, cells in complete growth media were seeded in 96-well plates at appropriate cell densities (seeding density details described in Table 3) and incubated at 37° C., 5% CO2 (3-4 hours for NCI-H526, NCI-H69, NCI-H187 and overnight for the rest of the cells). Serial dilutions of test compound in DMSO were added to the cells while maintaining the final DMSO concentration of 0.4%-0.5% in the well. Plates were incubated for 96-144 h (the exact duration for each assay is described in Table 3) at 37° C., 5% CO2. Subsequently, MTT (final concentration 0.5 mg/mL in media) was incubated with the cells at 37° C., 5% CO2 for 4-5 hours. The formazan crystals were dissolved overnight at 37° C., 5% CO2 using 100 μL extractant (10% SDS in 0.01N HCl) and quantified using absorbance at 570 nm with reference wavelength 630 nm. Growth inhibition was represented as percent decrease in absorbance compared to vehicle treated cells.

[4] = test system: NCI H69 cells; experiment: In-vitro cancer cell growth inhibition assay (MTT); assay type: cell-based; conditions: Homo sapiens, read-out: IC50 (nM) NCI H69
Procedure: as §1

[5] = test system: PANC-1 cells; experiment: In-vitro cancer cell growth inhibition assay (MTT); assay type: cell-based; conditions: Homo sapiens, read-out: IC50 (nM) PANC-1
Procedure: as §1

[6] = test system: MDA-MB-468 cells; experiment: In-vitro cancer cell growth inhibition assay (MTT); assay type: cell-based; conditions: Homo sapiens, read-out: IC50 (nM) MDA-MB-468
Procedure: as §1

[7] = test system: MDA-MB-231 cells; experiment: In-vitro cancer cell growth inhibition assay (MTT); assay type: cell-based; conditions: Homo sapiens, read-out: IC50 (nM) MDA-MB-231
Procedure: as §1

[8] = test system: HT-29 cells; experiment: In-vitro cancer cell growth inhibition assay (MTT); assay type: cell-based; conditions: Homo sapiens, read-out: IC50 (nM) HT-29
Procedure: as §1

[9] = test system: MX-1 cells; experiment: In-vitro cancer cell growth inhibition assay (MTT); assay type: cell-based; conditions: Homo sapiens, read-out: IC50 (nM) MX-1
Procedure: as §1

[10] = NCI-H187, read-out: IC50 (nM) NCI H187

Q: With `CCc1c2c(nc3ccc(O)cc13)-c1cc3c(c(=O)n1C2)COC(=O)[C@@]3(CC)OC(=O)OCCSSCCNC(=O)c1ccc(N2CCN(C)CC2)cc1` [Compound I.5, 2-(2-{4-[4-Methylpiperazin-1-yl]benzoylamino}ethyldisulfanyl) ethyl [(4S)-4,11-diethyl-3,4,12,14-tetrahydro-9-hydroxy-1H-pyrano[3′,4′:6,7]indolizino[1,2-b]quinoline-3,14-(4H,12H)dione-4-yl]carbonate dihydrochloride] as the molecule, how does the “% of Unconverted Compounds of Formula I” value ([1]; pH 4.7, 0 hr, 100 μg/ml (footnote *)) read?
A: 100%

Q: And the “% of Unconverted Compounds of Formula I” value ([1]; pH 4.7, 2 hr, 100 μg/ml (footnote *))?
A: 82.5%

Q: And the “% of Unconverted Compounds of Formula I” value ([1]; pH 4.7, 4 hr, 100 μg/ml (footnote *))?
A: 86.3%

Q: And the “% of Unconverted Compounds of Formula I” value ([1]; pH 4.7, 6 hr, 100 μg/ml (footnote *))?
A: 79.9%

Q: What about the “% of Unconverted Compounds of Formula I” value ([1]; pH 4.7, 8 hr, 100 μg/ml (footnote *)) of the same molecule?
A: 77.2%

Q: And the “% of Unconverted Compounds of Formula I” value ([1]; pH 6.0, 0 hr, 100 μg/ml (footnote *))?
A: 100%

Q: What about the “% of Unconverted Compounds of Formula I” value ([1]; pH 6.0, 2 hr, 100 μg/ml (footnote *)) of the same molecule?
A: 94.1%

Q: And the “% of Unconverted Compounds of Formula I” value ([1]; pH 6.0, 4 hr, 100 μg/ml (footnote *))?
A: 100%

Q: What about the “% of Unconverted Compounds of Formula I” value ([1]; pH 6.0, 6 hr, 100 μg/ml (footnote *)) of the same molecule?
A: 100%

Q: What about the “% of Unconverted Compounds of Formula I” value ([1]; pH 6.0, 8 hr, 100 μg/ml (footnote *)) of the same molecule?
A: 98.4%

Q: What about the “% of Unconverted Compounds of Formula I” value ([1]; pH 7.4, 0 hr, 100 μg/ml (footnote *)) of the same molecule?
A: 100%

Q: What about the “% of Unconverted Compounds of Formula I” value ([1]; pH 7.4, 2 hr, 100 μg/ml (footnote *)) of the same molecule?
A: 88.0%

Q: What about the “% of Unconverted Compounds of Formula I” value ([1]; pH 7.4, 4 hr, 100 μg/ml (footnote *)) of the same molecule?
A: 82.8%

Q: And the “% of Unconverted Compounds of Formula I” value ([1]; pH 7.4, 6 hr, 100 μg/ml (footnote *))?
A: 82.5%

Q: And the “% of Unconverted Compounds of Formula I” value ([1]; pH 7.4, 8 hr, 100 μg/ml (footnote *))?
A: 82.4%

Q: And the IC50 [2, 10]?
A: 0.77 nM

Q: What about the IC50 [3] of the same molecule?
A: 2.06 nM

Q: What about the IC50 ([4]; NCI-H69, 144 h) of the same molecule?
A: 1.3 nM

Q: And the IC50 ([5]; PANC-1, 96 h)?
A: 910 nM

Q: And the IC50 ([6]; MDA-MB-468, 96 h)?
A: 9.3 nM

Q: And the IC50 ([7]; MDA-MB-231, 96 h)?
A: 119 nM

Q: What about the IC50 ([8]; HT-29, 96 h) of the same molecule?
A: 48.3 nM

Q: What about the IC50 ([9]; MX1, 144 h) of the same molecule?
A: 4.6 nM

Q: Which results are given for `CCc1c2c(nc3ccc(O)cc13)-c1cc3c(c(=O)n1C2)COC(=O)[C@@]3(CC)OC(=O)OCCSSCCOC(=O)N(C)c1ccc(N2CCN(C)CC2)cc1.Cl` [Compound I.3, 2-(2-{N-Methyl-N-[4-(4-methylpiperazin-1-yl)phenyl]carbamoyloxy}ethyldisulfanyl)ethyl [(4S)-4,11-diethyl-3,4,12,14-tetrahydro-9-hydroxy-1H-pyrano[3′,4′:6,7]indolizino[1,2-b]quinoline-3,14-(4H,12H)dione-4-yl] carbonate hydrochloride]?
A: % of Unconverted Compounds of Formula I ([1]; pH 4.7, 0 hr, 200 μg/ml): 100%; % of Unconverted Compounds of Formula I ([1]; pH 4.7, 2 hr, 200 μg/ml): 100%; % of Unconverted Compounds of Formula I ([1]; pH 4.7, 4 hr, 200 μg/ml): 100%; % of Unconverted Compounds of Formula I ([1]; pH 4.7, 6 hr, 200 μg/ml): 100%; % of Unconverted Compounds of Formula I ([1]; pH 4.7, 8 hr, 200 μg/ml): 100%; % of Unconverted Compounds of Formula I ([1]; pH 6.0, 0 hr, 200 μg/ml): 100%; % of Unconverted Compounds of Formula I ([1]; pH 6.0, 2 hr, 200 μg/ml): 93.8%; % of Unconverted Compounds of Formula I ([1]; pH 6.0, 4 hr, 200 μg/ml): 97.8%; % of Unconverted Compounds of Formula I ([1]; pH 6.0, 6 hr, 200 μg/ml): 98.2%; % of Unconverted Compounds of Formula I ([1]; pH 6.0, 8 hr, 200 μg/ml): 100%; % of Unconverted Compounds of Formula I ([1]; pH 7.4, 0 hr, 200 μg/ml): 100%; % of Unconverted Compounds of Formula I ([1]; pH 7.4, 2 hr, 200 μg/ml): 100%; % of Unconverted Compounds of Formula I ([1]; pH 7.4, 4 hr, 200 μg/ml): 100%; % of Unconverted Compounds of Formula I ([1]; pH 7.4, 6 hr, 200 μg/ml): 100%; % of Unconverted Compounds of Formula I ([1]; pH 7.4, 8 hr, 200 μg/ml): 100%; IC50 [2, 10]: 0.68 nM; IC50 [3]: 1.91 nM; IC50 ([4]; NCI-H69, 144 h): 1.2 nM; IC50 ([5]; PANC-1, 96 h): 862 nM; IC50 ([8]; HT-29, 96 h): 43.7 nM

Q: Which IC50 ([2]; NCI-H187, MTT, read-out: IC50 (nM) NCI H187) does the source give for `CCc1c2c(nc3ccc(OC(=O)N4CCC(N5CCCCC5)CC4)cc13)-c1cc3c(c(=O)n1C2)COC(=O)[C@]3(O)CC` [Irinotecan HCl trihydrate, reference compound] here?
A: 385 nM

Q: And the IC50 ([3]; MTT)?
A: 750 nM

Q: What about the IC50 ([4]; NCI-H69, 144 hr, MTT) of the same molecule?
A: 473 nM

Q: What about the IC50 ([5]; PANC-1, 96 hr, MTT) of the same molecule?
A: 23000 nM

Q: What about the IC50 ([6]; MDA-MB-468, 96 hr, MTT) of the same molecule?
A: 4580 nM

Q: What about the IC50 ([7]; MDA-MB-231, 96 hr, MTT) of the same molecule?
A: 21700 nM

Q: What about the IC50 ([8]; HT-29, 96 hr, MTT) of the same molecule?
A: 14000 nM

Q: What about the IC50 ([9]; MX1, MX-1, 144 hr, MTT) of the same molecule?
A: 5910 nM
